In patent US20130184273A1, “BICYCLIC PYRIMIDINES” (Bayer Intellectual Property GmbH, priority 2010, published 2013):

Experiments:
[1] = biological target: T1, His-tagged human recombinant kinase full-length Akt1 (Homo sapiens, UniProt P31749); experiment: Akt1 kinase assay (TR-FRET); format: biochemical; conditions: 10 μM ATP, 60 min at 22° C., read-out: Akt1, median IC50
T1 construct: His-tagged human recombinant kinase full-length Akt1; His; purchased Invitrogen PV 3599; host or cells: insect cells
T1 sequence (P31749 whole entry): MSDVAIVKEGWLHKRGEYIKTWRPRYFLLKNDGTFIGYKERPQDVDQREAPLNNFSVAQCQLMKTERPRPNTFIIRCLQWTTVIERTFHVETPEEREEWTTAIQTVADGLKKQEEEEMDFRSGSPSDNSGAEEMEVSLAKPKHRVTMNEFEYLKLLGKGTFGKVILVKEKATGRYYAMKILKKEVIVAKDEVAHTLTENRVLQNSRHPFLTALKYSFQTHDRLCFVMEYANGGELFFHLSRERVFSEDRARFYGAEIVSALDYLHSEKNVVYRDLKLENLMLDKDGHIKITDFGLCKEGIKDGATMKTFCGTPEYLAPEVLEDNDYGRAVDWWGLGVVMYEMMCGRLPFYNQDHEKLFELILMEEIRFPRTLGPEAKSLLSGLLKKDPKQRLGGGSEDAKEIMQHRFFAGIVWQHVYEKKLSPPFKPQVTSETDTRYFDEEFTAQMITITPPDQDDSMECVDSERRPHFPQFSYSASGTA
From the text: Akt1 inhibitory activity of compounds of the present invention was quantified employing the Akt1 TR-FRET assay as described in the following paragraphs.
His-tagged human recombinant kinase full-length Akt1 expressed in insect cells was purchased form Invitrogen (part number PV 3599). As substrate for the kinase reaction the biotinylated peptide biotin-Ahx-KKLNRTLSFAEPG (C-terminus in amide form) was used which can be purchased e.g. from the company Biosynthan GmbH (Berlin-Buch, Germany).
For the assay 50 nl of a 100 fold concentrated solution of the test compound in DMSO was pipetted into a black low volume 384well microtiter plate (Greiner Bio-One, Frickenhausen, Germany), 2 μl of a solution of Akt1 in assay buffer [50 mM TRIS/HCl pH 7.5, 5 mM MgCl2, 1 mM dithiothreitol, 0.02% (v/v) Triton X-100 (Sigma)] were added and the mixture was incubated for 15 min at 22° C. to allow pre-binding of the test compounds to the enzyme before the start of the kinase reaction. Then the kinase reaction was started by the addition of 3 μl of a solution of adenosine-tri-phosphate (ATP, 16.7 μM=>final conc. in the 5 μl assay volume is 10 μM) and substrate (1.67 μM=>final conc. in the 5 μl assay volume is 1 μM) in assay buffer and the resulting mixture was incubated for a reaction time of 60 min at 22° C. The concentration of Akt1 in the assay was adjusted depending of the activity of the enzyme lot and was chosen appropriate to have the assay in the linear range, typical enzyme concentrations were in the range of about 0.05 ng/μl (final conc. in the 5 μl assay volume).
The reaction was stopped by the addition of 5 μl of a solution of HTRF detection reagents (200 nM streptavidine-XL665 [Cisbio] and 1.5 nM anti-phosho-Serine antibody [Millipore, cat. #35-001] and 0.75 nM LANCE Eu-W 1024 labeled anti-mouse IgG antibody [Perkin Elmer]) in an aqueous EDTA-solution (100 mM EDTA, 0.1% (w/v) bovine serum albumin in 50 mM HEPES/NaOH pH 7.5). The resulting mixture was incubated 1 h at 22° C. to allow the binding of the biotinylated phosphorylated peptide to the streptavidine-XL665 and the antibodies. Subsequently the amount of phosphorylated substrate was evaluated by measurement of the resonance energy transfer from the anti-mouse-IgG-Eu-Chelate to the streptavidine-XL665. Therefore, the fluorescence emissions at 620 nm and 665 nm after excitation at 350 nm was measured in a HTRF reader, e.g. a Rubystar (BMG Labtechnologies, Offenburg, Germany) or a Viewlux (Perkin-Elmer). The ratio of the emissions at 665 nm and at […] was taken as the measure for the amount of phosphorylated substrate. The data were normalised (enzyme reaction without inhibitor=0% inhibition, all other assay components but no enzyme=100% inhibition).

[2] = biological target: T2, His-tagged human recombinant kinase full-length Akt2 (Homo sapiens, UniProt P31751); experiment: Akt2 kinase assay (TR-FRET); format: biochemical; conditions: 10 μM ATP, 60 min at 22° C., read-out: Akt2, median IC50
T2 construct: His-tagged human recombinant kinase full-length Akt2; His; purchased Invitrogen PV 3975; host or cells: insect cells
T2 sequence (P31751 whole entry): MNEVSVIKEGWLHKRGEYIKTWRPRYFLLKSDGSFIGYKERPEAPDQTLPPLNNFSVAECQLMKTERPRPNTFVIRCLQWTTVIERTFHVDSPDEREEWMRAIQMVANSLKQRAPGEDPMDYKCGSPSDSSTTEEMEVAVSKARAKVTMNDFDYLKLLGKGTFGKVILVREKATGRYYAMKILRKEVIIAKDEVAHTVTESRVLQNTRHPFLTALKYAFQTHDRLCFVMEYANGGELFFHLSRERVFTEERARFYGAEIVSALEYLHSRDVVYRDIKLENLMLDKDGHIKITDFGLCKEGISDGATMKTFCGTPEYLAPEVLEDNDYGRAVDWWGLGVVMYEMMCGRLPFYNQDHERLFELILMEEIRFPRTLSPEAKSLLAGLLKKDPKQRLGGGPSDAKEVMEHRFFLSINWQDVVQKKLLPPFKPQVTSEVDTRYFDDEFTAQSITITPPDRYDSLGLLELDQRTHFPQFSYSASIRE
Summary of the method: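 TR-FRET read-out (anti-phosphoserine antibody, Eu-labelled anti-mouse IgG, streptavidin-XL665) of a 60 min, 22 °C reaction using 1 μM biotinylated peptide and 10 μM ATP. Enzyme: PDK1-activated full-length His-Akt2 from insect cells, about 0.2 ng/μl, with 15 min compound pre-binding; data normalised to no-inhibitor and no-enzyme controls.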

| SMILES | IC50 [1] [nM] | IC50 [2] [nM] |
| --- | --- | --- |
| Cc1nc2nc(-c3ccc(C4(N)CCC4)cc3)c(-c3ccccc3)cn2n1 [Example 1-0, 1-[4-(2-methyl-6-phenyl-[1,2,4]triazolo[1,5-a]pyrimidin-5-yl)-phenyl]-cyclobutylamine] | 794 | 960 |
| Cc1cn2cc(-c3ccccc3)c(-c3ccc(C4(N)CCC4)cc3)nc2n1 [Example 2-1, 1-[4-(2-Methyl-6-phenyl-imidazo[1,2-a]pyrimidin-7-yl)-phenyl]-cyclobutylamine] | 474 | 487 |
| CS(=O)(=O)c1ccc(-c2cnc3nc(-c4ccc(C5(N)CCC5)cc4)c(-c4ccccc4)cn23)cc1 [Example 4-0, 1-{4-[3-(4-Methansulfonyl-phenyl)-6-phenyl-imidazo[1,2-a]pyrimidin-7-yl]-phenyl}-cyclobutylamine] | 329 | 299 |
| Cn1cc(-c2nc3nc(-c4ccc(C5(N)CCC5)cc4)c(-c4ccccc4)cn3n2)cn1 [Example 5-2, 1-{4-[2-(1-methyl-1H-pyrazol-4-yl)-6-phenyl-[1,2,4]triazolo[1,5-a]pyrimidin-5-yl]-phenyl}-cyclobutylamine] | 376 | 340 |
| NC1(c2ccc(-c3nc4ncc(-c5ccc(F)cc5)n4cc3-c3ccccc3)cc2)CCC1 [Example 6-0, 1-{4-[3-(4-Fluorophenyl)-6-phenyl-imidazo[1,2-a]pyrimidin-7-yl]-phenyl}-cyclobutylamine] | 1410 | 681 |
| NC(=O)c1cccc(-c2cnc3nc(-c4ccc(C5(N)CCC5)cc4)c(-c4ccccc4)cn23)c1 [Example 6-2, 3-{7-[4-(1-Amino-cyclobutyl)-phenyl]-6-phenyl-imidazo[1,2-a]pyrimidin-3-yl}-benzamide] | 824 | 205 |
| NC1(c2ccc(-c3nc4ncc(-c5cn[nH]c5)n4cc3-c3ccccc3)cc2)CCC1 [Example 6-3, 1-{4-[6-Phenyl-3-(1H-pyrazol-4-yl)-imidazo[1,2-a]pyrimidin-7-yl]-phenyl}-cyclobutylamine] | 235 | 165 |
